In ChEMBL document CHEMBL4483862, “Open-source discovery of chemical leads for next-generation chemoprotective antimalarials” (2018) one finds IC50 and IC90 data, which are given here for 28 molecules.

The subject of the assay is Plasmodium berghei. Description: Luciferase/luciferin-expressing antifolate-resistant parasites were used to infect a culture of HepG2 cells that were pre-incubated with compounds. Infected hepatocytes emit light due to the luciferase reaction. Assay results are presented as the percent inhibition of light emission compared to control. […]. It is filed as functional. The following applies: sporozoite; for IC90: read-out: LUCIFERASE INFECTION ASSAY - IC90.

Turning to `COc1ccc(-c2cc(NC=O)c3ncc(-c4cc(OC)c(OC)c(OC)c4)n3c2)c(OC)c1`, the concentration for an effect of 90% (IC90) came to 5.96 µM. Besides, the half-maximal inhibitory concentration (IC50) (FFLUC_HILL_SLOPE 13.2, FFLUC_R_SQUARED 0.535, HEPG2TOX_HILL_SLOPE 2.06, HEPG2TOX_R_SQUARED 0.871, PBLUC_HILL_SLOPE 2.04, PBLUC_R_SQUARED 0.466, read-out: LUCIFERASE INFECTION ASSAY - IC50) worked out at 2.03 µM.
For `COc1c(C)cc(C(O)c2nc(-c3cccc4ccccc34)c[nH]2)cc1C` (stereo unspecified), the IC90 is greater than 9.21 µM. For the same molecule, the concentration for half-maximal inhibition (IC50) (FFLUC_HILL_SLOPE 13.5, FFLUC_R_SQUARED 0.422, HEPG2TOX_HILL_SLOPE 8.48, HEPG2TOX_R_SQUARED 0.286, read-out: LUCIFERASE INFECTION ASSAY - IC50) is greater than 9.21 µM.
On to `COc1ccc(C(=O)/C(=C/c2ccc(C)cc2C)c2nc3ccccc3[nH]2)cc1`, for which the IC90 amounted to 4.07 µM. Moreover, the half-maximal inhibitory concentration (IC50) (FFLUC_HILL_SLOPE 13.7, FFLUC_R_SQUARED 0.282, HEPG2TOX_HILL_SLOPE 10.4, HEPG2TOX_R_SQUARED 0.664, PBLUC_HILL_SLOPE 15.9, PBLUC_R_SQUARED 0.277, read-out: LUCIFERASE INFECTION ASSAY - IC50) amounted to 3.54 µM.
`CC(C)CNc1nn2c(-c3cccc(C(=O)N(C)C)c3)cnc2s1`: the IC90 is greater than 9.61 µM. For the same molecule, the IC50 (FFLUC_HILL_SLOPE 13.4, FFLUC_R_SQUARED 0.472, read-out: LUCIFERASE INFECTION ASSAY - IC50) was greater than 9.61 µM.
For the molecule `CCN(CC)S(=O)(=O)c1ccc(SC(C)C(=O)Nc2ccc(OC(F)(F)F)cc2)nc1` (stereo unspecified), the IC90 was greater than 10 µM. For the setting “FFLUC_HILL_SLOPE 13.8, FFLUC_R_SQUARED 0.75, read-out: LUCIFERASE INFECTION ASSAY - IC50”, the concentration for half-maximal inhibition (IC50) is greater than 10 µM.
Turning to `O=C(Nc1ccc(OC(F)(F)F)cc1)Nc1ccc2nc(-c3ccsc3)nn2c1`, the IC90 came out at 9.37 µM. Besides, the IC50 (FFLUC_HILL_SLOPE 13.4, FFLUC_R_SQUARED 0.266, PBLUC_HILL_SLOPE 2.61, PBLUC_R_SQUARED 0.893, read-out: LUCIFERASE INFECTION ASSAY - IC50) is 4.04 µM.
On to `Cc1cc(Cl)c(C)c(S(=O)(=O)Nc2ccccc2N2CCN(C)CC2)c1Cl`, for which the IC90 is greater than 10 µM. Also, where the note is “FFLUC_HILL_SLOPE 13.7, FFLUC_R_SQUARED 0.171, read-out: LUCIFERASE INFECTION ASSAY - IC50”, the IC50 was greater than 10 µM.
In the case of `CCn1c2ccccc2c2cc(NC(=O)CN3C(=O)NC4(CCCc5ccccc54)C3=O)ccc21` (stereo unspecified), the concentration for an effect of 90% (IC90) came out at 9.72 µM. Also, the IC50 (FFLUC_HILL_SLOPE 13.4, FFLUC_R_SQUARED 0.411, HEPG2TOX_HILL_SLOPE 9.13, HEPG2TOX_R_SQUARED 0.498, PBLUC_HILL_SLOPE 3.53, PBLUC_R_SQUARED 0.448, read-out: LUCIFERASE INFECTION ASSAY - IC50) was determined as 5.21 µM.
Regarding `CC(C)(C)c1cc(C(=O)Nc2ccc(Br)c(Cl)c2)n(Cc2ccccc2)n1`, the IC90 is greater than 7.39 µM. The 50% inhibitory concentration (IC50) (FFLUC_HILL_SLOPE 13.4, FFLUC_R_SQUARED 0.471, HEPG2TOX_HILL_SLOPE 9.89, HEPG2TOX_R_SQUARED 0.67, PBLUC_HILL_SLOPE 12.6, PBLUC_R_SQUARED 0.293, read-out: LUCIFERASE INFECTION ASSAY - IC50) is greater than 7.39 µM.
For the molecule `Cn1c(-c2cccc(C(F)(F)F)c2)cc2c(Nc3cccnc3)nccc21`, the concentration for an effect of 90% (IC90) is greater than 10 µM. The IC50 (FFLUC_HILL_SLOPE 13.4, FFLUC_R_SQUARED 0.159, PBLUC_HILL_SLOPE 11.7, PBLUC_R_SQUARED 0.342, read-out: LUCIFERASE INFECTION ASSAY - IC50) stood at 9.06 µM.
On to `CCOC(=O)c1c(C)[nH]c(C(=O)CSc2nccn2C)c1C`, for which the IC90 was found to be 0.204 µM. Where the note is “FFLUC_HILL_SLOPE 13.6, FFLUC_R_SQUARED 0.648, PBLUC_HILL_SLOPE 159, PBLUC_R_SQUARED 0.464, read-out: LUCIFERASE INFECTION ASSAY - IC50”, the IC50 turned out to be 0.201 µM.
In the case of `O=C(Cn1ncc(Cl)c(Cl)c1=O)Nc1cc(Cl)ccc1[N+](=O)[O-]`, the IC90 was 3.5 µM. The concentration for half-maximal inhibition (IC50) (FFLUC_HILL_SLOPE 13.5, FFLUC_R_SQUARED 0.43, HEPG2TOX_HILL_SLOPE 9.94, HEPG2TOX_R_SQUARED 0.973, PBLUC_HILL_SLOPE 20.4, PBLUC_R_SQUARED 0.69, read-out: LUCIFERASE INFECTION ASSAY - IC50) is 3.14 µM.
In the case of `CCCN1C(=O)c2[nH]nc(-c3ccccc3O)c2C1c1ccc(Cl)cc1` (stereo unspecified), the 90% effect concentration (IC90) was greater than 8.97 µM. The IC50 (FFLUC_HILL_SLOPE 13.6, FFLUC_R_SQUARED 0.713, HEPG2TOX_HILL_SLOPE 5.14, HEPG2TOX_R_SQUARED 0.579, read-out: LUCIFERASE INFECTION ASSAY - IC50) is greater than 8.97 µM.
Regarding `CCC(C)NC(=O)c1c(NC(=O)c2ccc(Cl)cc2Cl)nc2ccc(C)cn12` (stereo unspecified), the IC90 is 0.967 µM. Further, the IC50 (FFLUC_HILL_SLOPE 13.5, FFLUC_R_SQUARED 0.613, HEPG2TOX_HILL_SLOPE 1.25, HEPG2TOX_R_SQUARED 0.963, PBLUC_HILL_SLOPE 11.1, PBLUC_R_SQUARED 0.736, read-out: LUCIFERASE INFECTION ASSAY - IC50) turned out to be 0.793 µM.
`CCOC(=O)c1sc(SCc2ccc(Cl)cc2)c(S(=O)(=O)C(C)C)c1-n1cccc1`: the concentration for an effect of 90% (IC90) was greater than 6.82 µM. The IC50 (FFLUC_HILL_SLOPE 13.5, FFLUC_R_SQUARED 0.375, read-out: LUCIFERASE INFECTION ASSAY - IC50) is greater than 6.82 µM.
For `O=C1C(=O)N(Cc2cc3c(cc2Cl)OCO3)c2ccc(Br)cc21`, the IC90 is greater than 8.36 µM. The IC50 (FFLUC_HILL_SLOPE 13.4, FFLUC_R_SQUARED 0.714, HEPG2TOX_HILL_SLOPE 8.11, HEPG2TOX_R_SQUARED 0.359, PBLUC_HILL_SLOPE 6.2, PBLUC_R_SQUARED 0.151, read-out: LUCIFERASE INFECTION ASSAY - IC50) came out at 7.48 µM.
As to `COc1cc(C(=O)N(C)C(c2ccccc2)c2ccccc2)ccc1OCC(C)C`, the concentration for an effect of 90% (IC90) was greater than 10 µM. Moreover, under “FFLUC_HILL_SLOPE 13.6, FFLUC_R_SQUARED 0.558, HEPG2TOX_HILL_SLOPE 7.8, HEPG2TOX_R_SQUARED 0.217, read-out: LUCIFERASE INFECTION ASSAY - IC50”, the 50% inhibitory concentration (IC50) is greater than 10 µM.
Regarding `COc1ccc(CC(=O)N2CCC3(CC2)OCc2ccccc2O3)cc1`, the IC90 is greater than 9.34 µM. Where the note is “FFLUC_HILL_SLOPE 13.5, FFLUC_R_SQUARED 0.0841, HEPG2TOX_HILL_SLOPE 0.312, HEPG2TOX_R_SQUARED 0.567, read-out: LUCIFERASE INFECTION ASSAY - IC50”, the concentration for half-maximal inhibition (IC50) was greater than 9.34 µM.
Regarding `O=S(=O)(c1ccc2oc(Nc3ccc(Nc4ccccc4)cc3)nc2c1)N1CCOCC1`, the IC90 was greater than 10 µM. For the same molecule, the IC50 (FFLUC_HILL_SLOPE 13.7, FFLUC_R_SQUARED 0.693, PBLUC_HILL_SLOPE 9.99, PBLUC_R_SQUARED 0.314, read-out: LUCIFERASE INFECTION ASSAY - IC50) is 9.23 µM.
On to `Cc1cccc(-c2noc(CNC(=O)Cc3ccc(-c4ccccc4)cc3)n2)c1`, for which the 90% effect concentration (IC90) came to 3.18 µM. Besides, the IC50 (FFLUC_HILL_SLOPE 13.2, FFLUC_R_SQUARED 0.46, HEPG2TOX_HILL_SLOPE 2.91, HEPG2TOX_R_SQUARED 0.962, PBLUC_HILL_SLOPE 21.5, PBLUC_R_SQUARED 0.134, read-out: LUCIFERASE INFECTION ASSAY - IC50) came out at 2.87 µM.
As for `Cc1ccc(CN2C(=O)C(O)(c3c[nH]c4ccccc34)c3ccccc32)c(C)c1` (stereo unspecified), the IC90 was found to be 6.05 µM. Moreover, the IC50 (FFLUC_HILL_SLOPE 13.6, FFLUC_R_SQUARED 0.607, PBLUC_HILL_SLOPE 3.72, PBLUC_R_SQUARED 0.631, read-out: LUCIFERASE INFECTION ASSAY - IC50) is 3.35 µM.
For the molecule `Cc1ccc(-c2csc3[nH]c(CNC(C)c4ccc5c(c4)CCCC5)nc(=O)c23)s1` (stereo unspecified), the IC90 is greater than 10 µM. Besides, the IC50 (FFLUC_HILL_SLOPE 13.5, FFLUC_R_SQUARED 0.414, HEPG2TOX_HILL_SLOPE 0.395, HEPG2TOX_R_SQUARED 0.365, read-out: LUCIFERASE INFECTION ASSAY - IC50) is greater than 10 µM.
For the molecule `CCOC(=O)C1=C(C)NC(C)=C(C(=O)OCC)C1c1ccc(-c2cc(C(F)(F)F)cc(C(F)(F)F)c2)o1`, the IC90 is greater than 6.21 µM. Moreover, the concentration for half-maximal inhibition (IC50) (FFLUC_HILL_SLOPE 13.3, FFLUC_R_SQUARED 0.16, read-out: LUCIFERASE INFECTION ASSAY - IC50) is greater than 6.21 µM.
`CCOC(=O)Nc1ccc2c(Cn3cnc4sc5c(c4c3=O)CCC5)cc(=O)oc2c1`: the IC90 was greater than 10 µM. Also, the IC50 (FFLUC_HILL_SLOPE 14, FFLUC_R_SQUARED 0.282, read-out: LUCIFERASE INFECTION ASSAY - IC50) is greater than 10 µM.
Turning to `CC(C)(C)c1cc(NC(=O)CSc2ccc(Cl)cc2)c(C(N)=O)s1`, the IC90 was greater than 8.62 µM. Besides, the 50% inhibitory concentration (IC50) (FFLUC_HILL_SLOPE 13.8, FFLUC_R_SQUARED 0.177, HEPG2TOX_HILL_SLOPE 8.22, HEPG2TOX_R_SQUARED 0.725, read-out: LUCIFERASE INFECTION ASSAY - IC50) was greater than 8.62 µM.
On to `Cc1c(C(=O)C(F)(F)F)c(-c2nn(-c3ccccc3)c(NC(=O)C(F)(F)F)c2C(=O)C(F)(F)F)c(C)n1-c1ccc(F)cc1`, for which the 90% effect concentration (IC90) is greater than 10 µM. In addition, for the setting “FFLUC_HILL_SLOPE 13.3, FFLUC_R_SQUARED 0.772, PBLUC_HILL_SLOPE 3.36, PBLUC_R_SQUARED 0.0987, read-out: LUCIFERASE INFECTION ASSAY - IC50”, the IC50 is 8.23 µM.
Consider `CC(C)c1nc(N2CCN(CC(=O)N3CCCC3)CC2)c(C#N)c2c1CCC2`, for which the IC90 amounted to 2.94 µM. The concentration for half-maximal inhibition (IC50) (FFLUC_HILL_SLOPE 13.3, FFLUC_R_SQUARED 0.232, PBLUC_HILL_SLOPE 4.16, PBLUC_R_SQUARED 0.67, read-out: LUCIFERASE INFECTION ASSAY - IC50) amounted to 1.73 µM.
In the case of `O=c1c2c3c(sc2nc(SCc2nc4ccc(Cl)cc4n2CCO)n1CC1CCCO1)CCC3` (stereo unspecified), the IC90 was greater than 10 µM. Moreover, the IC50 (FFLUC_HILL_SLOPE 13.3, FFLUC_R_SQUARED 0.41, read-out: LUCIFERASE INFECTION ASSAY - IC50) was greater than 10 µM.
